Results published in the NIST ThermoML archive (doi:10.1016/j.jct.2007.04.009).
± gives the expanded uncertainty stated by the source.

Assay: cn = amount concentration of the nth substance listed, in mol/dm3
Conditions: 101 kPa, Liquid; for speed of sound: Sing-around technique in a fixed-path interferometer; for mass density: Vibrating tube method

Which results are given for Cl [hydrogen chloride] + O?
speed of sound (283.15 K, c1 = 0.001): 1447.9 ± 0.99 m/s; speed of sound (283.15 K, c1 = 0.01): 1448.2 ± 0.99 m/s; mass density (283.15 K, c1 = 0.001): 999.726 ± 0.047 kg/m3; mass density (283.15 K, c1 = 0.01): 999.891 ± 0.047 kg/m3; speed of sound (293.15 K, c1 = 0.001): 1482.6 ± 1 m/s; speed of sound (293.15 K, c1 = 0.01): 1482.7 ± 1 m/s; mass density (293.15 K, c1 = 0.001): 998.23 ± 0.058 kg/m3; mass density (293.15 K, c1 = 0.01): 998.393 ± 0.044 kg/m3; speed of sound (298.15 K, c1 = 0.001): 1496.8 ± 0.99 m/s; speed of sound (298.15 K, c1 = 0.01): 1496.9 ± 0.99 m/s; mass density (298.15 K, c1 = 0.001): 997.067 ± 0.053 kg/m3; mass density (298.15 K, c1 = 0.01): 997.231 ± 0.046 kg/m3; speed of sound (303.15 K, c1 = 0.001): 1509.3 ± 0.99 m/s; speed of sound (303.15 K, c1 = 0.01): 1509.3 ± 0.99 m/s; mass density (303.15 K, c1 = 0.001): 995.67 ± 0.054 kg/m3; mass density (303.15 K, c1 = 0.01): 995.834 ± 0.049 kg/m3; speed of sound (308.15 K, c1 = 0.001): 1520 ± 0.99 m/s; speed of sound (308.15 K, c1 = 0.01): 1520 ± 0.99 m/s; mass density (308.15 K, c1 = 0.001): 994.057 ± 0.06 kg/m3; mass density (308.15 K, c1 = 0.01): 994.318 ± 0.05 kg/m3; speed of sound (313.15 K, c1 = 0.001): 1529.1 ± 0.99 m/s; speed of sound (313.15 K, c1 = 0.01): 1529.1 ± 0.99 m/s; mass density (313.15 K, c1 = 0.001): 992.244 ± 0.052 kg/m3; mass density (313.15 K, c1 = 0.01): 992.405 ± 0.053 kg/m3
